Literature values, collected in patent US4439425A, “Peptide derivatives” (Ciba-Geigy Corporation, priority 1979, dated 1984).

Tested on: lymphocytes
Details: Z. Immun.-Forschung 153, 11-22 (1977)

## murein lipoprotein: murein lipoprotein of the outer cell wall of Escherichia coli
  in vitro mitogenic activity: in vitro mitogenic activity towards some lymphocytes
